We go through 25 compounds from patent US11884682B2, “Compounds and their uses as MIF inhibitors” (NANJING IMMUNOPHAGE BIOTECH CO., LTD., priority 2020, dated 2024).

In one assay the target is MIF (Homo sapiens (Human), UniProt P14174). Kind of assay: MIF tautomerase assay using pHPP as substrate. The class given is biochemical. As to conditions: cell-free, pHPP substrate 1.5 mM, MIF 3 nM; mean pIC50 of multiple test results. As for the experimental part:
Tautomerase Assay Using pHPP as substrate
This assay measured MIF's tautomerase activity in a cell-free system and was based on the determination of initial rates of the MIF-catalyzed conversion of the ketonic into the enolic tautomer of pHPP. This was achieved by spectrophotometric quantification of the complex between borate and the product of the reaction (enolic pHPP). The substrate was prepared by conversion of the enolic pHPP into its ketonic form. To achieve this, 0.5 M pHPP in methanol was diluted 10-fold with 50 mM sodium acetate buffer at pH 6.0, and then the suspension was shaken for 24 h at room temperature in darkness, and finally stored at 4° C. for not more than 1 week, with 5 min sonication being recommended before use.
Assays were performed in small-volume clear-bottom black 96 or 384-well polystyrene plates (Greiner Bio-One). First, 2 μL of the enzyme solution containing 6 nM of MIF in DPBS, 0.025% w/v BSA, and 300 μM CHAPS was dispensed onto sample and negative control wells using Multidrop Combi with metallic tip cassettes (Thermo Fisher Scientific) previously treated with Sigmacote. Then, 2 μL of the same buffer without MIF was dispensed onto positive control wells. The reaction was started by addition of the following to all wells: 2 μL of substrate solution containing 3 mM ketonic pHPP in 200 mM boric acid, 25 mM sodium phosphate, 0.025% w/v BSA, and 300 μM CHAPS at pH 6.0. In order to remove bubbles, the plate was centrifuged in an Allegra 25R centrifuge (Beckman Coulter, Inc., Brea, CA) at 1000 rpm for 2 min at room temperature. Then, the plate was read in an EnVision. Final concentrations of enzyme and substrate were 3 nM and 1.5 mM, respectively. Initial rates were calculated for each well as the slope of the absorbance progress curve.
The data mentioned below represents a mean pIC50 value of multiple test results. It is understood that the data illustrated below may have reasonable variation depending on the specific conditions and procedures used by the person conducting the testing.

In the next assay the test system is BV2 cells. Nature of the assay: BV2 cell proliferation assay (CCK-8). The conditions noted are these: Mus musculus, BV-2, 48 h treatment, CCK-8, top concentration 33.3 μM, mean pIC50 of multiple test results, read-out: BV2 Profileration pIC50 (converted). Type of assay: cell-based. The source says: (§1) The assay measures the ability of a compound to inhibit cell proliferation using Cell Counting Kit-8 (CCK-8), which allows sensitive colorimetric assays for the determination of cell viability in cell proliferation and cytotoxicity assays. The highly water-soluble tetrazolium salt, WST-8, is reduced by dehydrogenase activities in cells to give a yellow-color formazan dye, which is soluble in the tissue culture media. The amount of the formazan dye, generated by the activities of dehydrogenases in cells, is directly proportional to the number of living cells.
(§2) The assay was performed based on the instruction of the manufacturer (Dojindo Molecular Technologies Inc., Rockville, MD, USA). To start the assay, BV2 cells were seeded at a density of […] into 96-well plates and treated with test compounds, which were used at a top final assay concentration of 33.3 μM, diluted in assay medium with 1:3 dilutions to produce 10 point concentration responses, for 48 h. After incubation, the CCK-8 solution (10 μl) was added to each well of the plate and the plates were incubated in incubator at 37° C. for 3 h. Absorbance was recorded three times independently using a microplate reader (Bio-Rad Laboratories, Richmond, CA, USA) at 450 nm.
Selected examples were tested in the BV2 cell proliferation. The data mentioned below represents a mean pIC50 value of multiple test results. It is understood that the data illustrated below may have reasonable variation depending on the specific conditions and procedures used by the person conducting the testing.

The next assay has as its system U251 cell. Nature of the assay: U251 cell proliferation assay (CCK-8). Type of assay: cell-based. As to conditions: Homo sapiens, U-251; U251 cells; read-out: U251 Profileration pIC50 (converted).
From the text: [The source words this procedure for another cell line and reports this cell line under the same test.] as §1, §2

Sequence of MIF (P14174 2-115): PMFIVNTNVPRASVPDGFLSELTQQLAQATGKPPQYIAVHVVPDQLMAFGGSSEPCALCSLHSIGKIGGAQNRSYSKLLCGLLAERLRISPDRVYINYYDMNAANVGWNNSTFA

Turning to `COc1cc(OCCO)ccc1C(=O)Nc1nnc(-c2cccs2)o1` [Compound 17, 4-(2-hydroxyethoxy)-2-methoxy-N-(5-(thiophen-2-yl)-1,3,4-oxadiazol-2-yl)benzamide], the “Tautomerase Inhibition pIC50” value on MIF was 7.98. In addition, the IC50 was 11.5 µM in the assay with BV2 cells and greater than 1000 µM in the assay with U251 cell.

Turning to `COc1cc(OCC(=O)O)ccc1C(=O)Nc1nnc(-c2cccs2)o1` [Compound 19, 2-(3-methoxy-4-((5-(thiophen-2-yl)-1,3,4-oxadiazol-2-yl)carbamoyl)phenoxy)acetic acid], the IC50 in the assay with BV2 cells and with U251 cell was greater than 1000 µM in each case.

As to `COc1cc(OC(C)(C)C(=O)O)ccc1C(=O)Nc1nnc(-c2cccs2)o1` [Compound 21, 2-(3-methoxy-4-((5-(thiophen-2-yl)-1,3,4-oxadiazol-2-yl)carbamoyl)phenoxy)-2-methyl propanoic acid], the IC50 with BV2 cells and in the assay on U251 cell was greater than 1000 µM throughout.

Regarding `COc1cc(OCc2nn[nH]n2)ccc1C(=O)Nc1nnc(-c2cccs2)o1` [Compound 22, 4-((2H-tetrazol-5-yl)methoxy)-2-methoxy-N-(5-(thiophen-2-yl)-1,3,4-oxadiazol-2-yl)benzamide], the “Tautomerase Inhibition pIC50” value at MIF amounted to 7.91. The IC50 in the assay on BV2 cells and with U251 cell was greater than 1000 µM throughout.

`O=C(NCc1nnc(-c2cccs2)o1)c1ccccc1F` [Compound 44, 2-fluoro-N-((5-(thiophen-2-yl)-1,3,4-oxadiazol-2-yl)methyl)benzamide]: the “Tautomerase Inhibition pIC50” value on MIF is less than 5. The IC50 in the assay on BV2 cells is 45.7 µM; in the assay with U251 cell, greater than 1000 µM.

As for `COc1cccc(OC)c1C(=O)NCc1nnc(-c2cccs2)o1` [Compound 46, 2,6-dimethoxy-N-((5-(thiophen-2-yl)-1,3,4-oxadiazol-2-yl)methyl)benzamide], on MIF, the “Tautomerase Inhibition pIC50” value is reported as 3.70. Besides, the IC50 with BV2 cells and in the assay with U251 cell was greater than 1000 µM throughout.

As for `COc1cc(N2CCOCC2)ccc1C(=O)NCc1nnc(-c2cccs2)o1` [Compound 51, 2-methoxy-4-morpholino-N-((5-(thiophen-2-yl)-1,3,4-oxadiazol-2-yl)methyl)benzamide], the “Tautomerase Inhibition pIC50” value at MIF came to 6.29. Moreover, the IC50 is 13.2 µM in the assay on BV2 cells and greater than 1000 µM in the assay on U251 cell.

Regarding `COc1cc(N2CCOCC2)ccc1C(=O)N(C)Cc1nnc(-c2cccs2)o1` [Compound 52, 2-methoxy-N-methyl-4-morpholino-N-((5-(thiophen-2-yl)-1,3,4-oxadiazol-2-yl)methyl)benzamide], the “Tautomerase Inhibition pIC50” value at MIF is given as 4.20. In addition, the IC50 was 3.63 µM in the assay with BV2 cells and greater than 1000 µM with U251 cell.

Take `COc1cc(N2CC(C)OC(C)C2)ccc1C(=O)NCc1nnc(-c2cccs2)o1` (centres unmarked) [Compound 55, 4-(2,6-dimethylmorpholino)-2-methoxy-N-((5-(thiophen-2-yl)-1,3,4-oxadiazol-2-yl)methyl)benzamide]: the “Tautomerase Inhibition pIC50” value on MIF is reported as 6.22.

With `COc1cc(N2CCCCC2)ccc1C(=O)NCc1nnc(-c2cccs2)o1` [Compound 56, 2-methoxy-4-(piperidin-1-yl)-N-((5-(thiophen-2-yl)-1,3,4-oxadiazol-2-yl)methyl)benzamide], the “Tautomerase Inhibition pIC50” value at MIF is 6.13. For the same compound, the IC50 in the assay with BV2 cells is 16.2 µM; with U251 cell, greater than 1000 µM.

`COc1cc(N2CC3CC(C2)O3)ccc1C(=O)NCc1nnc(-c2cccs2)o1` [Compound 57, 4-(6-oxa-3-azabicyclo[3.1.1]heptan-3-yl)-2-methoxy-N-((5-(thiophen-2-yl)-1,3,4-oxadiazol-2-yl)methyl)benzamide]: the “Tautomerase Inhibition pIC50” value on MIF turned out to be 6.29.

Consider `COc1cc(N2CCOCC2)ccc1C(=O)NCc1nnc(-c2ccns2)o1` [Compound 61, N-((5-(isothiazol-5-yl)-1,3,4-oxadiazol-2-yl)methyl)-2-methoxy-4-morpholinobenzamide], for which the “Tautomerase Inhibition pIC50” value at MIF is listed as less than 5.

Regarding `COc1cc(N2CCOCC2)ccc1C(=O)NCc1nnc(-c2nccs2)o1` [Compound 62, 2-methoxy-4-morpholino-N-((5-(thiazol-2-yl)-1,3,4-oxadiazol-2-yl)methyl)benzamide], the “Tautomerase Inhibition pIC50” value at MIF is less than 5.

Turning to `COc1cc(N2CCOCC2)ccc1C(=O)NCc1nnc(-c2ccc(Cl)s2)o1` [Compound 64, N-((5-(5-chlorothiophen-2-yl)-1,3,4-oxadiazol-2-yl)methyl)-2-methoxy-4-morpholinobenzamide], the “Tautomerase Inhibition pIC50” value on MIF amounted to 4.79.

In the case of `COc1cc(N2CCOCC2)ccc1C(=O)NC(C)(C)c1nnc(-c2cccs2)o1` [Compound 65, 2-methoxy-4-morpholino-N-(2-(5-(thiophen-2-yl)-1,3,4-oxadiazol-2-yl)propan-2-yl)benzamide], the “Tautomerase Inhibition pIC50” value on MIF is on record as less than 5.

Consider `COc1cc(N2CCOCC2)ccc1C(=O)NC1(c2nnc(-c3cccs3)o2)CC1` [Compound 66, 2-methoxy-4-morpholino-N-(1-(5-(thiophen-2-yl)-1,3,4-oxadiazol-2-yl)cyclopropyl)benzamide], for which the “Tautomerase Inhibition pIC50” value at MIF was less than 5.

`COc1cc(N2CCOCC2)ccc1C(=O)N(C)C(C)(C)c1nnc(-c2cccs2)o1` [Compound 68, 2-methoxy-N-methyl-4-morpholino-N-(2-(5-(thiophen-2-yl)-1,3,4-oxadiazol-2-yl)propan-2-yl)benzamide]: on MIF, the “Tautomerase Inhibition pIC50” value is listed as 3.23.

In the case of `COc1cc(OCCN2CCOCC2)ccc1C(=O)NCc1nnc(-c2cccs2)o1` [Compound 69, 2-methoxy-4-(2-morpholinoethoxy)-N-((5-(thiophen-2-yl)-1,3,4-oxadiazol-2-yl)methyl)benzamide], the IC50 is 44.7 µM with BV2 cells and greater than 1000 µM in the assay on U251 cell.

Regarding `COc1cc(OCCO)ccc1C(=O)NCc1nnc(-c2cccs2)o1` [Compound 70, 4-(2-hydroxyethoxy)-2-methoxy-N-((5-(thiophen-2-yl)-1,3,4-oxadiazol-2-yl)methyl)benzamide], the “Tautomerase Inhibition pIC50” value on MIF stood at 6.12.

Turning to `COCCOc1ccc(C(=O)NCc2nnc(-c3cccs3)o2)c(OC)c1` [Compound 71, 2-methoxy-4-(2-methoxyethoxy)-N-((5-(thiophen-2-yl)-1,3,4-oxadiazol-2-yl)methyl)benzamide], on MIF, the “Tautomerase Inhibition pIC50” value was determined as 6.21.

Take `COc1cc(N2CCC(O)C2)ccc1C(=O)NCc1nnc(-c2cccs2)o1` (centres unmarked) [Compound 78, 4-(3-hydroxypyrrolidin-1-yl)-2-methoxy-N-((5-(thiophen-2-yl)-1,3,4-oxadiazol-2-yl)methyl)benzamide]: the figures for the IC50 in the assay with BV2 cells and in the assay with U251 cell were 79.4 µM and greater than 1000 µM, respectively.

As to `COc1cc(NCCO)ccc1C(=O)NCc1nnc(-c2cccs2)o1` [Compound 79, 4-((2-hydroxyethyl)amino)-2-methoxy-N-((5-(thiophen-2-yl)-1,3,4-oxadiazol-2-yl)methyl)benzamide], the IC50 in the assay on BV2 cells and in the assay with U251 cell was greater than 1000 µM throughout.

`CNCCOc1ccc(C(=O)NCc2nnc(-c3cccs3)o2)c(OC)c1` [Compound 80, 2-methoxy-4-(2-(methylamino)ethoxy)-N-((5-(thiophen-2-yl)-1,3,4-oxadiazol-2-yl)methyl)benzamide]: the IC50 is 26.3 µM in the assay on BV2 cells and greater than 1000 µM with U251 cell.

With `COc1cc(OC2CCNC2)ccc1C(=O)NCc1nnc(-c2cccs2)o1` (centres unmarked) [Compound 81, 2-methoxy-4-(pyrrolidin-3-yloxy)-N-((5-(thiophen-2-yl)-1,3,4-oxadiazol-2-yl)methyl)benzamide], the IC50 with BV2 cells is greater than 1000 µM; in the assay with U251 cell, 35.5 µM.

With `COc1cc(C(C)(C)O)ccc1C(=O)NCc1nnc(-c2cccs2)o1` [Compound 83, 4-(2-hydroxypropan-2-yl)-2-methoxy-N-((5-(thiophen-2-yl)-1,3,4-oxadiazol-2-yl)methyl)benzamide], the IC50 in the assay on BV2 cells and in the assay on U251 cell was greater than 1000 µM throughout.
